Source: patent US7579432B2, “Cyclic peptides as G-protein-coupled receptor antagonists” (Promics Pty Limited, priority 2001, dated 2009)
Bridge positions count the residues as written; N and C are the ends. Square brackets hold non-standard residues; d marks the D form. Peptide text beside a SMILES is read from it. * marks the point of attachment. Hydrocinnamoyl = O=C(CCc1ccccc1)*; dCha = N[C@H](CC1CCCCC1)C(=O)O; Orn = NCCC[C@H](N)C(=O)O

System: neutropenia caused by i.v. LPS
Assay: LPS-induced neutropenia (endotoxaemia model)
Type: in vivo, rat
Conditions: topical in 50% DMSO/50% H2O, 60 min before LPS 1 mg/kg i.v.
Description: The in vivo pharmacological properties of cyclic antagonists were examined following topical dermal administration. A model of endotoxaemia was used, in which 1 mg/kg Escherichia coli […] (LPS; serotype 55:B5, Sigma, USA, stored at 100 mg ml^−1 in dH2O, 4° C.), was injected i.v into a rat, resulting in acute changes in circulating PMN levels and blood pressure. These parameters were measured in the presence and absence of C5aR antagonists (1 mg/kg i.v or 50 mg/kg/rat topically). […] Female Wistar rats weighing between 200-250 g were used for in vivo testing of all C5a receptor antagonists. Rats were anaesthetized using the procedure described above, and transferred on to a heating pad to ensure that body temperature was maintained throughout the experiment. A catheter was inserted in the femoral vein, secured with a suture and flushed with 100 μL of heparinised saline. […] All agents infused i.v were injected over a 2 min period, and were followed with a subsequent injection of 100 μL of saline to ensure complete delivery of the drug. Whole blood samples (0.1 mL) were collected from the tail vein at the time of drug and LPS or C5a administration. Samples were collected at −15, 0, 5, 10, 15, 30, 60, 90, 120 and 150 min relative to the injection of LPS (zero time), and placed in tubes containing heparin (500 Units/mL). To isolate PMNs, 100 μL of blood was layered on to 200 μL of Histopaque 1077 (Sigma U.S.A.) solution and centrifuged at 400×g for 30 min min at room temperature (25° C.). The supernatant layer of platelet-rich plasma, the monocyte and lymphocyte interface and the separation layer of Histopaque were removed and discarded, leaving the PMN and red blood-cell rich layer. […] The number of PMNs was counted on a haemocytometer. The number of cells at each time point was calculated as a percentage of the total number of cells at time zero, prior to complement challenge or LPS. […] Circulating PMN levels were monitored for 150 min following LPS injection, and the percentage change in PMN levels from zero time, when LPS was injected, was calculated.

Row | Structure (SMILES) | neutropenia response to i.v. LPS
1 | CC(=O)N[C@@H](Cc1ccccc1)C(=O)N[C@H]1CCCNC(=O)[C@H](CCCNC(N)=O)NC(=O)[C@H](Cc2c[nH]c3ccccc23)NC(=O)[C@@H](CC2CCCCC2)NC(=O)[C@@H]2CCCN2C1=O [Compound 45, AcF[OPdChaW-Cit]] | inhibited the neutropenia response
2 | N=C(N)NCCC[C@@H]1NC(=O)[C@H](Cc2c[nH]c3ccccc23)NC(=O)[C@@H](CC2CCCCC2)NC(=O)[C@@H]2CCCN2C(=O)[C@@H](NC(=O)CCc2ccccc2)CCCNC1=O [Compound 17, HC[OP-dCha-WR]] (Hydrocinnamoyl-[Orn]P[dCha]WR; lactam 1-C) | inhibited the neutropenia response
